Source: patent US6890736B1, “Methods for producing proteins in cultured cells” (Immunex Corporation, priority 2002, dated 2005)

Columns and labels:
[1] = Example 1: cell number (hemocytometer) and viability (trypan blue); format: cell-based, Chinese hamster; settings: Chinese hamster, 34° C.
Procedure: (§1) The following experiment was designed to test whether decitabine can induce the production of a protein, in this case a recombinant soluble form of the human interleukin 1 receptor type II (IL-1-R-II), at either 31° C. or 34° C. Soluble versions of IL-1R-II and methods for producing it are described in U.S. Pat. No. 5,767,064. DNA encoding a soluble form of the human IL-1R-II was inserted into pG3.6, which is described in Morris et al. ((1998), Cytotechnology 28:9-17). This construct was used to transfect CHO cells to produce cell lines, including 25H9, that produce IL-1R-II protein.
(§2) About 2×10^6 cells of cell line 25H9 were inoculated into 30 milliliters of serum-free medium and incubated at the temperatures indicated in Table 1 in vented shake flasks. At the times indicated in Table 1, samples were taken from each flask to determine IL-1R-II titer, cell number, and cell viability. IL-1R-II protein titer was determined by ELISA assay. Cell number was determined by counting cells in a hemocytometer. Cell viability was determined by trypan blue staining and counting stained cells in a hemocytometer. Cumulative viable cell density (CVCD) is the area under the curve of a plot of the viable cell density versus time (in units of cells/ml/day). Productivity (pg of IL-1R-II/cell/day) was determined by dividing the protein titer on a particular day by the CVCD on the same day. Cells were fed with amino acids on days 2 and 5, and dextrose was added periodically in order to maintain levels above 2.0 g/L. All samples were done in duplicate, and the data shown is an average value.

[2] = test system: cell line 25H9 (CHO cells); assay: as above; format: cell-based, Chinese hamster
Procedure: as §1, §2

[3] = 31° C., 1 μM decitabine, day 10
[4] = 31° C., 5 μM decitabine, day 10
[5] = 31° C., 10 μM decitabine, day 0
[6] = 31° C., 10 μM decitabine, day 3
[7] = 31° C., 10 μM decitabine, day 5
[8] = 31° C., 10 μM decitabine, day 7
[9] = 31° C., 10 μM decitabine, day 10
[10] = 34° C., 1 μM decitabine, day 10
[11] = 34° C., 5 μM decitabine, day 10
[12] = 34° C., 10 μM decitabine, day 0
[13] = 34° C., 10 μM decitabine, day 3
[14] = 34° C., 10 μM decitabine, day 5
[15] = 34° C., 10 μM decitabine, day 7

Nc1ncn([C@H]2C[C@H](O)[C@@H](CO)O2)c(=O)n1 [decitabine, 5-aza-2′-deoxycytidine]
viability at 3 day, 1 μM ([1]; 1 μM decitabine, day 3): 93.6% | viability at 5 day, 1 μM ([1]; 1 μM decitabine, day 5): 91.5% | viability at 7 day, 1 μM ([1]; 1 μM decitabine, day 7): 55% | viability at 10 day, 1 μM ([1]; 1 μM decitabine, day 10): 21.4% | viability at 0 day, 5 μM ([1]; 5 μM decitabine, day 0): 96.1% | viability at 3 day, 5 μM ([1]; 5 μM decitabine, day 3): 96.1% | viability at 5 day, 5 μM ([1]; 5 μM decitabine, day 5): 80.3% | viability at 7 day, 5 μM ([1]; 5 μM decitabine, day 7): 62.7% | viability at 10 day, 5 μM ([1]; 5 μM decitabine, day 10): 33.3% | viability at 0 day, 10 μM ([1]; 10 μM decitabine, day 0): 96.1% | viability at 3 day, 10 μM ([1]; 10 μM decitabine, day 3): 93.6% | viability at 5 day, 10 μM ([1]; 10 μM decitabine, day 5): 75.3% | viability at 7 day, 10 μM ([1]; 10 μM decitabine, day 7): 43.9% | Cumulative Viable Cell Density ([2]; 31° C., 1 μM decitabine, day 0): 0 mL⁻¹ day⁻¹ | Viable Cell Density ([2]; 31° C., 1 μM decitabine, day 0): 1.8e+06 mL⁻¹ | Cumulative Viable Cell Density ([2]; 31° C., 1 μM decitabine, day 3): 8.3e+06 mL⁻¹ day⁻¹ | Viable Cell Density ([2]; 31° C., 1 μM decitabine, day 3): 3.7e+06 mL⁻¹ | Cumulative Viable Cell Density ([2]; 31° C., 1 μM decitabine, day 5): 1.7e+07 mL⁻¹ day⁻¹ | Viable Cell Density ([2]; 31° C., 1 μM decitabine, day 5): 5e+06 mL⁻¹ | Cumulative Viable Cell Density ([2]; 31° C., 1 μM decitabine, day 7): 2.77e+07 mL⁻¹ day⁻¹ | Viable Cell Density ([2]; 31° C., 1 μM decitabine, day 7): 5.7e+06 mL⁻¹ | Cumulative Viable Cell Density [2, 3]: 4.38e+07 mL⁻¹ day⁻¹ | Viable Cell Density [2, 3]: 5.1e+06 mL⁻¹ | Cumulative Viable Cell Density ([2]; 31° C., 5 μM decitabine, day 0): 0 mL⁻¹ day⁻¹ | Viable Cell Density ([2]; 31° C., 5 μM decitabine, day 0): 1.8e+06 mL⁻¹ | Cumulative Viable Cell Density ([2]; 31° C., 5 μM decitabine, day 3): 8.5e+06 mL⁻¹ day⁻¹ | Viable Cell Density ([2]; 31° C., 5 μM decitabine, day 3): 3.8e+06 mL⁻¹ | Cumulative Viable Cell Density ([2]; 31° C., 5 μM decitabine, day 5): 1.57e+07 mL⁻¹ day⁻¹ | Viable Cell Density ([2]; 31° C., 5 μM decitabine, day 5): 3.5e+06 mL⁻¹ | Cumulative Viable Cell Density ([2]; 31° C., 5 μM decitabine, day 7): 2.28e+07 mL⁻¹ day⁻¹ | Viable Cell Density ([2]; 31° C., 5 μM decitabine, day 7): 3.6e+06 mL⁻¹ | Cumulative Viable Cell Density [2, 4]: 4e+07 mL⁻¹ day⁻¹ | Viable Cell Density [2, 4]: 7.8e+06 mL⁻¹ | Cumulative Viable Cell Density [2, 5]: 0 mL⁻¹ day⁻¹ | Viable Cell Density [2, 5]: 1.8e+06 mL⁻¹ | Cumulative Viable Cell Density [2, 6]: 7.4e+06 mL⁻¹ day⁻¹ | Viable Cell Density [2, 6]: 3.1e+06 mL⁻¹ | Cumulative Viable Cell Density [2, 7]: 1.44e+07 mL⁻¹ day⁻¹ | Viable Cell Density [2, 7]: 3.9e+06 mL⁻¹ | Cumulative Viable Cell Density [2, 8]: 2.15e+07 mL⁻¹ day⁻¹ | Viable Cell Density [2, 8]: 3.3e+06 mL⁻¹ | Cumulative Viable Cell Density [2, 9]: 3.18e+07 mL⁻¹ day⁻¹ | Viable Cell Density [2, 9]: 3.6e+06 mL⁻¹ | Cumulative Viable Cell Density ([2]; 34° C., 1 μM decitabine, day 0): 0 mL⁻¹ day⁻¹ | Viable Cell Density ([2]; 34° C., 1 μM decitabine, day 0): 1.8e+06 mL⁻¹ | Cumulative Viable Cell Density ([2]; 34° C., 1 μM decitabine, day 3): 1.14e+07 mL⁻¹ day⁻¹ | Viable Cell Density ([2]; 34° C., 1 μM decitabine, day 3): 5.7e+06 mL⁻¹ | Cumulative Viable Cell Density ([2]; 34° C., 1 μM decitabine, day 5): 2.55e+07 mL⁻¹ day⁻¹ | Viable Cell Density ([2]; 34° C., 1 μM decitabine, day 5): 8.4e+06 mL⁻¹ | Cumulative Viable Cell Density ([2]; 34° C., 1 μM decitabine, day 7): 4.15e+07 mL⁻¹ day⁻¹ | Viable Cell Density ([2]; 34° C., 1 μM decitabine, day 7): 7.6e+06 mL⁻¹ | Cumulative Viable Cell Density [2, 10]: 5.69e+07 mL⁻¹ day⁻¹ | Viable Cell Density [2, 10]: 2.7e+06 mL⁻¹ | Cumulative Viable Cell Density ([2]; 34° C., 5 μM decitabine, day 0): 0 mL⁻¹ day⁻¹ | Viable Cell Density ([2]; 34° C., 5 μM decitabine, day 0): 1.8e+06 mL⁻¹ | Cumulative Viable Cell Density ([2]; 34° C., 5 μM decitabine, day 3): 1.16e+07 mL⁻¹ day⁻¹ | Viable Cell Density ([2]; 34° C., 5 μM decitabine, day 3): 5.9e+06 mL⁻¹ | Cumulative Viable Cell Density ([2]; 34° C., 5 μM decitabine, day 5): 2.47e+07 mL⁻¹ day⁻¹ | Viable Cell Density ([2]; 34° C., 5 μM decitabine, day 5): 7.2e+06 mL⁻¹ | Cumulative Viable Cell Density ([2]; 34° C., 5 μM decitabine, day 7): 3.81e+07 mL⁻¹ day⁻¹ | Viable Cell Density ([2]; 34° C., 5 μM decitabine, day 7): 6.3e+06 mL⁻¹ | Cumulative Viable Cell Density [2, 11]: 5.27e+07 mL⁻¹ day⁻¹ | Viable Cell Density [2, 11]: 3.4e+06 mL⁻¹ | Cumulative Viable Cell Density [2, 12]: 0 mL⁻¹ day⁻¹ | Viable Cell Density [2, 12]: 1.8e+06 mL⁻¹ | Cumulative Viable Cell Density [2, 13]: 9.8e+06 mL⁻¹ day⁻¹ | Viable Cell Density [2, 13]: 4.7e+06 mL⁻¹ | Cumulative Viable Cell Density [2, 14]: 1.93e+07 mL⁻¹ day⁻¹ | Viable Cell Density [2, 14]: 4.8e+06 mL⁻¹ | Cumulative Viable Cell Density [2, 15]: 2.73e+07 mL⁻¹ day⁻¹ | Viable Cell Density [2, 15]: 3.2e+06 mL⁻¹
